Test system: Heliobacter pylori
Experiment: In vitro testing on H. pylori
Format: cell-based
Conditions: dose of 0.06 mg
Experimental: The biological activity of the 4 shikonin derivatives were tested against 2 microorganisms Heliobacter pylori (H. pylori or HP) and Candida albicans (C. albicans).

`CC(=O)O[C@H](CC=C(C)C)C1=CC(=O)c2c(O)ccc(O)c2C1=O` [compound D, acetylshikonin] was tested, and the “inhibition associated with H. pylori” value was 41.6%.
`CC(C)=CC[C@@H](O)C1=CC(=O)c2c(O)ccc(O)c2C1=O` [compound E, shikonin] was tested, and the “inhibition associated with H. pylori” value was 41.6%.

Reference: patent publication US20240009143A1, “EXTRACTION OF SHIKONIN FROM ARNEBIA DECUMBENS ROOTS AND USE OF SHIKONIN DERIVATIVES FOR TREATING ULCERS” (KUWAIT UNIVERSITY, priority 2022, published 2024)
